# US6011070A, “Slow-onset, long-lasting dopamine reuptake blockers” (priority 1997, dated 2000)
# “Also recorded” adds a separate entry of the source. Where two headings read alike, the source gives them in different places.
# Tests used:
# male Swiss-Webster mice [1] = experiment: Time course study of locomotor stimulation over 8 hours (Example 6); format: in vivo, Swiss-Webster mice (Hsd:ND4); settings: for ED50: Mus musculus, ip, read-out: ED50 (dose producing one half maximal stimulant activity); for Maximum effect (horizontal activity) / Dose of maximum effect: logistic peak fit
# Method: A dose response study of induced locomotor stimulation was conducted according to the following procedure. The study was conducted using 16 Digiscan locomotor activity testing chambers (40.5×40.5×30.5 cm) housed in sets of two, within sound-attenuating chambers. A panel of infrared beams (16 beams) and corresponding photodetectors were located in the horizontal direction along the sides of each activity chamber. A 7.5-W incandescent light above each chamber provided dim illumination. Fans provided an 80-dB ambient noise level within the chamber. Separate groups of 8 non-habituated male Swiss-Webster mice (Hsd:ND4, aged 2-3 months) were injected via the intraperitoneal (IP) route with either vehicle (0.9% saline) or test compound (5, 10, 20 or 40 mg/kg), immediately prior to locomotor activity testing. In all studies, horizontal activity (interruption of photocell beams) was measured for 8 hours within 10 minute periods, beginning at […]) two hours after lights on). Testing was conducted with one mouse per activity chamber.
# Stimulant effects of 10, 20 and 40 mg/kg occurred within 10 minutes following injection and lasted up to 3 hours. […] Using TableCurve 2D v2.03 software (Jandel Scientific), the mean average horizontal activity counts for this 30-min period were fit to a 3-parameter logistic peak function of log10 dose (with the constant set to 3172, the mean of the saline-treated group), and the maximum was estimated from the resulting curve (maximum=6059 counts/10 min at 18.3 mg/kg).
# Separate groups of eight mice were injected with either vehicle (deionized water) or Compound 2 (1, 3, 10 pr 30 mg/kg) immediately prior to locomotor activity testing.
# Stimulant effects occurred within 40 to 70 minutes following injection and lasted 4 to ≥7 hours. The time period 280-310 min was selected for analysis of dose-response data because this was the time period in which maximal stimulant effects first appeared as a function of dose. Using TableCurve 2D v2.03 software (Jandel Scientific), the mean average horizontal activity counts/10 min for this period were fit to a 3-parameter logistic peak function of log10 dose (with the constant set to 399, the mean of the vehicle-treated group), and the maximum effect estimated from the resulting curve (maximum=4581 counts/10 min at 12.9 mg/kg).
# male Swiss-Webster mice [2] = experiment: Dose response study of induced locomotor stimulation (Digiscan), 1 h session (Example 2); format: in vivo, Swiss-Webster mice (Hsd:ND4); settings: IP; for Maximal Effect Relative to Cocaine / ED50: locomotor activity; for ED50: Mus musculus, 30-60 min period
# Method: A dose response study of induced locomotor stimulation was conducted according to the following procedure. The study was conducted using a 16 or 32 Digiscan locomotor activity testing chambers (40.5×40.5×30.5 cm) housed in sets of two, within sound-attenuating chambers. A panel of infrared beams (16 beams) and corresponding photodetectors were located in the horizontal direction along the sides of each activity chamber. A 15-W incandescent light above each chamber provided dim illumination. Fans provided an 80-dB ambient noise level within the chamber. Separate groups of 8 non-habituated male Swiss-Webster mice (Hsd:ND4, aged 2-3 months) were injected via the intraperitoneal (IP) route with either vehicle (deionized water for Compounds 1-4, carboxymethylcellulose for Compound 6 or methyl cellulose for Compound 7)) or test compound (1, 2.5, 5, 10, 25 or 50 mg/kg for Compound 3; 1, 3, 10 and 30 mg/kg for Compounds 1, 2 and 4; 3, 10, 30 or 100 mg/kg for Compound 6; and 1, 3, 10, 30 and 100 mg/kg for Compound 7). Compounds 1-4 were injected immediately prior to locomotor activity testing. […] In all studies, horizontal activity (interruption of photocell beams) was measured for 1 hour within 10 minute periods. Testing was conducted with one mouse per activity chamber.
# FIGS. 1, 3, 5 and 7 show average horizontal activity counts/10 minutes as a function of time, immediately following injection of Compound 1, Compound 2, Compound 3 and Compound 4, respectively. FIGS. 13 and 15 show average horizontal activity counts/10 minutes as a function of time, beginning twenty minutes following injection of Compound 6 and Compound 7, respectively. The period 30-60 minutes was selected for analysis of dose-response data. Using TableCurve 2D v2.03 software (Jandel Scientific), the mean average horizontal activity counts/10 minutes for this period were fit to a 3-parameter logistic peak function of log10 dose (with the constant set to 1989, the mean of the vehicle-treated group), and the maximum effect estimated from the resulting curve. […] FIGS. 2, 4, 6, 8, 14 and 16 show average horizontal activity counts/10 minutes over 30 minutes versus the amount administered of Compound 1, Compound 2, Compound 3, Compound 4, Compound 6 and Compound 7, respectively.
# [3] = tested on: cocaine-induced stimulation; experiment: Interaction study: block of cocaine-induced locomotor stimulation (20 mg/kg cocaine IP) (Example 3); format: in vivo, Swiss-Webster mice; settings: for ED50: Mus musculus, ip, read-out: AD50 (dose attenuating cocaine-induced stimulation by 50%)
# Method: This interaction study was conducted using 16 Digiscan locomotor activity testing chambers as described in Example 2. […] When testing the effects of Compounds 6 and 7, mice were placed in the Digiscan apparatus twenty minutes after the injection of the test compound or vehicle.
# FIGS. 9, 17 and 19 show average horizontal activity counts for the different treatment groups as a function of time. […] FIGS. 10, 18 and 20 show average horizontal activity counts/10 min for different treatment groups as a function of dose.
# A one-way analysis of variance conducted on log10 horizontal activity counts for the selected time period indicated a significant overall effect for the treatment groups; F(4,35)=[…] for Compound 2; F(5,42)=[…] for Compound 6; and F((5,42)=8.96 p<0.5). […] All ps<0.05 are denoted in FIGS. 10, 18 and 20 with an asterisk.
# squirrel monkeys = experiment: Locomotor response in primates (Example 5); format: in vivo
# [4] = read-out: ED50 (dose producing 1/2 maximal stimulant activity)
structure (smiles),measurement,setting,value
"COC(=O)[C@H]1[C@@H](OC(=O)c2ccccc2)C[C@@H]2CC[C@H]1N2C [Cocaine, reference compound]",ED50,male Swiss-Webster mice [1]; 0.5 h,8.8 mg/kg
same,Duration of stimulant effects,"male Swiss-Webster mice [1]; cocaine 10, 20 and 40 mg/kg IP",up to 3 hours
same,Onset of stimulant effects following injection,"male Swiss-Webster mice [1]; cocaine 10, 20 and 40 mg/kg IP",≤ 10 min
same,Maximum effect (horizontal activity),"male Swiss-Webster mice [1]; cocaine, 0-30 min, at 18.3 mg/kg",6059 counts/10 min
same,Dose of maximum effect,"male Swiss-Webster mice [1]; cocaine, 0-30 min",18.3 mg/kg
same,Stimulation of locomotor activity,"male Swiss-Webster mice [1]; cocaine, doses from 10 to 40 mg/kg IP",time-dependent stimulation of locomotor activity
same,Period of maximal stimulant effects,male Swiss-Webster mice [1]; first minutes following 20 mg/kg cocaine,≤ 30 min
same,Control rate of responding maintained by cocaine (drug component),"male rhesus monkeys; 0.0032 mg/kg/inj cocaine, monkey 89B013",0.51 responses/sec
same,Control rate of responding maintained by cocaine (drug component),"male rhesus monkeys; 0.0032 mg/kg/inj cocaine, monkey 89B056",0.79 responses/sec
same,Control rate of responding maintained by cocaine (drug component),"male rhesus monkeys; 0.0032 mg/kg/inj cocaine, monkey J3A",0.57 responses/sec
same,Control rate of responding maintained by cocaine (drug component),"male rhesus monkeys; 0.01 mg/kg/inj cocaine, monkey WH8",0.45 responses/sec
same,Unit dose of cocaine maintaining maximal rates of self-administration,"male rhesus monkeys; control conditions, monkey WH8",0.01 mg/kg/inj
same,Unit dose of cocaine maintaining maximal rates of self-administration,"male rhesus monkeys; control conditions, monkeys 89B056 and J3A",0.0032 mg/kg/inj
same,Shape of dose-effect curve for cocaine self-administration,"male rhesus monkeys; control conditions, no pretreatment",inverted-U shape
CCCN(C)C1CC(c2ccc(Cl)c(Cl)c2)c2ccccc21 (centres unmarked) [Compound 2],Maximal Effect Relative to Cocaine,male Swiss-Webster mice [2],0.51
same,ED50,male Swiss-Webster mice [2]; [4],5.65 mg/kg
same,Effect on cocaine-induced locomotor stimulation,[3]; 20 mg/kg cocaine IP,antagonized the stimulant effect of cocaine; also recorded: block cocaine induced locomotor activity
same,Dose with significant difference against the cocaine group (planned comparisons),"[3]; 20 mg/kg cocaine IP, 0-30 min, p<0.05",30 mg/kg
same,ED50,[3],13.8 mg/kg
same,Period of maximal stimulant effects,male Swiss-Webster mice [1]; Compound 2,280 to 310 min
same,Duration of stimulant effects,"male Swiss-Webster mice [1]; Compound 2, 3 to 30 mg/kg",UP TO SEVEN
same,Maximal effect/cocaine maximal effect ratio (ME/CME),"male Swiss-Webster mice [1]; Compound 2, 280-310 min",1.4
same,Maximum effect (horizontal activity),"male Swiss-Webster mice [1]; Compound 2, 280-310 min, at 12.9 mg/kg",4581 counts/10 min
same,Dose of maximum effect,"male Swiss-Webster mice [1]; Compound 2, 280-310 min",12.9 mg/kg
same,Stimulation of locomotor activity,"male Swiss-Webster mice [1]; Compound 2, doses from 3 to 30 mg/kg",time-dependent stimulation of locomotor activity
same,ED50,"male Swiss-Webster mice [1]; 310 min, Compound 2, 280-310 min, 1 to 10 mg/kg ascending portion",3.3 mg/kg
CCN(C)C1CC(c2ccc(Cl)c(Cl)c2)c2ccccc21 (centres unmarked) [Compound 3],Maximal Effect Relative to Cocaine,male Swiss-Webster mice [2],0.93
same,ED50,male Swiss-Webster mice [2]; [4],10.8 mg/kg
CCNC1CC(c2ccc(Cl)c(Cl)c2)c2ccccc21 (centres unmarked) [Compound 4],Maximal Effect Relative to Cocaine,male Swiss-Webster mice [2],1.07
same,ED50,male Swiss-Webster mice [2]; [4],3.9 mg/kg
CNC1CC(c2ccc(Cl)c(Cl)c2)c2ccccc21 (centres unmarked) [Compound 5],Duration of stimulated locomotor activity / increased response rate,squirrel monkeys; 0.3 mg/kg Compound 5,two to four
same,Number of Responses/Second,"squirrel monkeys; 0.3 mg/kg Compound 5, Day 1, Monkey 1 (control 0.74)",1.29 responses/second
same,Number of Responses/Second,"squirrel monkeys; 0.3 mg/kg Compound 5, Day 1, Monkey 2 (control 0.72)",0.87 responses/second
same,Number of Responses/Second,"squirrel monkeys; 0.3 mg/kg Compound 5, Day 1, Monkey 3 (control 0.92)",1.11 responses/second
same,Number of Responses/Second,"squirrel monkeys; 0.3 mg/kg Compound 5, Day 2, Monkey 1 (control 0.74)",0.99 responses/second
same,Number of Responses/Second,"squirrel monkeys; 0.3 mg/kg Compound 5, Day 2, Monkey 2 (control 0.72)",1.18 responses/second
same,Number of Responses/Second,"squirrel monkeys; 0.3 mg/kg Compound 5, Day 2, Monkey 3 (control 0.92)",1.28 responses/second
same,Number of Responses/Second,"squirrel monkeys; 0.3 mg/kg Compound 5, Day 3, Monkey 1 (control 0.74)",0.75 responses/second
same,Number of Responses/Second,"squirrel monkeys; 0.3 mg/kg Compound 5, Day 3, Monkey 2 (control 0.72)",0.88 responses/second
same,Number of Responses/Second,"squirrel monkeys; 0.3 mg/kg Compound 5, Day 3, Monkey 3 (control 0.92)",1.13 responses/second
same,Number of Responses/Second,"squirrel monkeys; 0.3 mg/kg Compound 5, Day 4, Monkey 1 (control 0.74)",0.79 responses/second
same,Number of Responses/Second,"squirrel monkeys; 0.3 mg/kg Compound 5, Day 4, Monkey 2 (control 0.72)",0.74 responses/second
same,Number of Responses/Second,"squirrel monkeys; 0.3 mg/kg Compound 5, Day 4, Monkey 3 (control 0.92)",1.01 responses/second
CC(C)(C)NC1CC(c2ccc(Cl)c(Cl)c2)c2ccccc21 (centres unmarked) [Compound 6],ED50,male Swiss-Webster mice [2]; [4],506 mg/kg
same,Effect on cocaine-induced locomotor stimulation,[3]; 20 mg/kg cocaine IP,antagonized the stimulant effect of cocaine
same,ED50,[3],23.6 mg/kg
CN(C1CC(c2ccc(Cl)c(Cl)c2)c2ccccc21)C(C)(C)C (centres unmarked) [Compound 7],Effect on locomotor activity,male Swiss-Webster mice [2],inhibited locomotor activity
same,ED50,male Swiss-Webster mice [2]; read-out: ID50 (dose producing 1/2 maximal inhibitory activity),184 mg/kg
same,Effect on cocaine-induced locomotor stimulation,[3]; 20 mg/kg cocaine IP,antagonized the stimulant effect of cocaine; also recorded: block cocaine induced locomotor activity
same,ED50,[3],42.5 mg/kg
